Test [1] addresses T1, DR1 (Homo sapiens, UniProt P01903+P01911, A100R/D57E/F55L/F60I/F76Y/I96L/L162R/M171V/P40L/Q125E/R42F/V115G/Y59C). The test is described as follows: Effects of additives on the refolding of DR1, spun column assay. It counts as biochemical. As to conditions: for Harmfull (to DR1 refolding): additive titrated in refolding buffer pH 8 without glycerol, 3 nM 125I YHA306-318, 80 nM DR1 α and β chains.

The target in test [2] is T2, DR2a (DRA*0101/DRB5*0101) (Homo sapiens, UniProt P01903+Q30154).
T2 construct: DRA*01011-181LZFos; DRB5*01011-190LZJunBSP; made in house
Description: Competitive LOCI peptide-MHC-II binding assay, DR2a. Particulars: pH 6-7.5, 48 h 18°C, read-out: DR2a Komp IC50.

In test [3] the target is T2, DR2a (DRA*0101/DRB5*0101). Description: Direct LOCI peptide-MHC-II binding assay, DR2a. As to conditions: read-out: DR2a pH6 affinity.
Test [4] addresses T3, DR3 (DRA*0101/DRB1*0301) (Homo sapiens, UniProt P01903+P01911, A100K/A102G/A103R/A169T/F55Y/I96L/K41T/L162R/M171V/P40S/Q125H/Q178H/Q39Y/R42S/S66N/T106N/T262R/W38E/Y61H).
T3 construct: DRA*01011-181LZFos; DRB1*03011-190LZJunBSP; made in house
Description: Direct LOCI peptide-MHC-II binding assay, DR3. Particulars: read-out: DR3 affinity.

Test [5] has as its target T4, DR4 (DRA*0101/DRB1*0401) (Homo sapiens, UniProt P01903+P01911, A100K/A169T/F76Y/I96L/K127E/L162R/M171V/N62H/P40V/Q125Y/R42H/S133A/S149N/S66Y/V115G/V209L/W38E).
T4 construct: DRA*01011-181LZFos; DRB1*04011-190LZJunBSP; made in house
Description: Direct LOCI peptide-MHC-II binding assay, DR4. As to conditions: read-out: DR4 affinity.

Test [6] has as its target T5, DRB1*0813 (DRA*0101/DRB1*0813) (Homo sapiens, UniProt P01903+P01911, A100R/A103L/A169T/F76Y/H45Y/I96L/K41T/L162R/M171V/P40S/Q125H/Q178H/Q39Y/Q99D/R218S/R42G/S66Y/V115G/W38E).
T5 construct: DRA*01011-181LZFos; DRB1*08131-190LZJunBSP; made in house
Description: Direct LOCI peptide-MHC-II binding assay, DRB1*0813. As to conditions: read-out: DRB1*0813 affinity.

Test [7] deals with T6, DRB3*0301 (DRA*0101/DRB3*0301) (Homo sapiens, UniProt P01903+P79483, A169T/A212P/D57E/G115V/L67V/Q178H/R103Q/R40L/Y55F).
T6 construct: DRA*01011-181LZFos; DRB3*03011-190LZJunBSP; made in house
The test is described as follows: Direct LOCI peptide-MHC-II binding assay, DRB3*0301. Particulars: read-out: DRB3*0301 affinity.

For test [8], the target named is DP401 (DPA1*0103/DPB1*0401) (Homo sapiens, UniProt P04440+P20036). Description: Direct LOCI peptide-MHC-II binding assay, DP401. Particulars: read-out: DP401 affinity.
Test [9] has as its target DR1 (DRA*0101/DRB1*0101) (Homo sapiens, UniProt P01903+P01911, A100R/D57E/F55L/F60I/F76Y/I96L/L162R/M171V/P40L/Q125E/R42F/V115G/Y59C). The test is described as follows: Competitive peptide-HLA-DR1 binding assay, radioactive spun column.
Test [10] has as its target T7, DR2 (DR2a) (Homo sapiens, UniProt P01903+Q30154).
T7 construct: DR2a: DRA*0101_1–181/DRB5*0101_1–190; made in house
Description: ELISA-based peptide-MHC class II binding assay, DR2. (ELISA stands for enzyme-linked immunosorbent assay.)

Test [11] addresses T8, DR4 (Homo sapiens, UniProt P01903+P01911).
T8 construct: made in house
Description: ELISA-based peptide-MHC class II binding assay, DR4.

For test [12], the target named is T9, I-E^d (Mus musculus, UniProt P01904+P01915).
T9 construct: I-E^dA1-191LZFos; I-E^dB1-198LZJunBSP; made in house
The test is described as follows: Direct LOCI peptide-MHC-II binding assay, I-E^d. Particulars: 48 h 18°C; read-out: I-E^D affinity.

The target of test [13] is T1, DR1. The test is described as follows: biochemical. It counts as binding.
[14] abbreviates: refolding buffer pH 8 without glycerol, 3 nM 125I YHA306-318, 80 nM DR1.

pEC50, pIC50, pKd: −log10 of the molar value. Like-named read-outs stand apart in the source and are kept apart here. Where no end group is shown, it is not given here.

With `CCC(C)O` (stereo not shown) [2-Butanol], in test [1], the “Harmfull (to DR1 refolding)” value is “Yes”. Also, the “additive concentration at 50 % signal reduction” value in test [1] (setting [14]) was found to be 2.5 Vol %.

Regarding `CCCCCCCCO[C@@H]1O[C@H](CO)[C@@H](O)[C@H](O)[C@H]1O` [Beta octyl glucoside], the “Harmfull (to DR1 refolding)” value in [1] is “No”. In test [1] (setting [14]), the “Ok up to” value is “Ok up to 0.5 w/w %”.

Take `CSCC[C@H](NC(=O)[C@@H]1CCCN1C(=O)[C@H](CC(C)C)NC(=O)[C@H](C)NC(=O)[C@H](CCC(N)=O)NC(=O)[C@H](CCSC)NC(=O)[C@H](CC(C)C)NC(=O)[C@H](CC(C)C)NC(=O)[C@@H]1CCCN1C(=O)[C@@H](NC(=O)[C@H](C)NC(=O)[C@H](CCSC)NC(=O)[C@H](CCCNC(=N)N)NC(=O)[C@H](CCSC)NC(=O)[C@H](CCCCN)NC(=O)[C@H](CO)NC(=O)[C@@H](NC(=O)[C@@H]1CCCN1C(=O)[C@H](CCCCN)NC(=O)[C@@H]1CCCN1C(=O)[C@@H]1CCCN1C(=O)[C@H](CCCCN)NC(=O)[C@@H]1CCCN1C(=O)[C@H](CC(C)C)NC(=O)[C@@H](N)Cc1ccc(O)cc1)C(C)C)[C@@H](C)O)C(=O)O` [CLIP]: the pIC50 (in general, the negative decadic logarithm of the IC50, by convention in mol/L) in test [2] (competitive LOCI, 4 nM biotin-PEG-HA306–318 agonist, β chain without biotin, α/β 13/5 nM, L243, average of 2–4 measurements) is 9.00; in test [9] (competition with 3 nM 125I labelled (Y)HA306–318, 80 nM DR1 α and β chain, 24 h, spun column, some ligand depletion expected, read-out: IC50), 7.40. Further, the pKd in test [3] was 9.00; in test [4], 9.00; in test [5] it was 8.70; in test [6], 8.70; in [7] it was 9.00; in test [8], 8.40. The EC50 (in general, the midpoint of the concentration-response curve) in test [10] (ELISA, L243 detection, α/β 31 and 1 nM, refolding buffer pH 8, 24 h 18°C, peptide concentration in nM per legend, read-out: EC50 DR2) amounted to 0.7 nM; in [11] (ELISA, L243 detection, α/β 31 and 1 nM, refolding buffer pH 8, 24 h 18°C, peptide concentration in nM per legend, read-out: EC50 DR4), 9.7 nM.

For `C[C@H](CCC(=O)O)[C@H]1CC[C@H]2[C@@H]3CC[C@@H]4C[C@H](O)CC[C@]4(C)[C@H]3C[C@H](O)[C@]12C` [DOC, Deoxycholate], the “Harmfull (to DR1 refolding)” value in [1] is “Yes/No”. Moreover, in test [1] (setting [14]), the “Positive effect up to (harmful at higher concentrations)” value is reported as “Positive effect up to 0.02 % Harmfull at higher concentrations”.

For `OCC(O)CO` [Glycerol], the “Harmfull (to DR1 refolding)” value in test [1] is listed as “No”. Besides, the “effect on DR1 refolding (in words)” value in test [1] (refolding buffer pH 8, 3 nM 125I YHA306-318, 80 nM DR1) is “Enhances folding in whole range tested”.

With `CC(C)O` [Isopropanol], in test [1], the “Harmfull (to DR1 refolding)” value is listed as “Yes”. Moreover, in test [1] (setting [14]), the “additive concentration at 50 % signal reduction” value was determined as 5 Vol %.

For `CCCCCCCCCCCC(=O)N(C)CC(=O)O` [N-Laurylsarcosin], in test [1], the “Harmfull (to DR1 refolding)” value is “Yes”. Also, the “additive concentration at 50 % signal reduction” value in test [1] (setting [14]) turned out to be 0.01 Vol %.

For the molecule `[Cl-].[Na+]` [NaCl, Sodium Chloride], in [1], the “Harmfull (to DR1 refolding)” value is listed as “Yes”. For the same molecule, the “additive concentration at 50 % signal reduction” value in test [1] (setting [14]) is 100 mM.

Consider `NC(N)=O` [Urea], for which the “Harmfull (to DR1 refolding)” value in [1] is “Yes/No”. The “Ok up to (harmful at higher concentrations)” value in [1] (setting [14]) was “Ok up to 400 mM. Harmfull at higher concentrations”.

For `Oc1ccc(Cl)cc1` [parachlorophenol (pCP), parachlorophenol], the “Harmfull (to DR1 refolding)” value in test [1] is “Yes”. Moreover, the “additive concentration at 50 % signal reduction” value in test [1] (setting [14]) is given as 4 mM.

Turning to YKYVKQNTLKLAT [HA306-318], the negative logarithm of the IC50 (pIC50) in test [2] was 8.70; in test [9] it was 7.47. Moreover, the pKd in test [3] (pH 6, 48 h 18°C) is 8.00; in [4] (pH 6-7, 48 h 18°C) it was 7.89; in [5] (pH 6-7.5, 48 h 18°C), 8.10; in test [6] (pH 6-7.5, 48 h 18°C), 7.96; in test [7] (pH 7, 48 h 18°C), 8.40; in [8] (pH 7, 48 h 18°C) it was below 5.30. The pKd in test [12] was 7.60. Moreover, the figures for the pEC50 in test [13], in [10] and in test [11] were 8.66, 8.92 and 7.37, respectively.

The values above are taken from paper PMC2690590, “Functional recombinant MHC class II molecules and high-throughput peptide-binding assays” (Immunome Research, 2009).
